# Results taken from US10961238B2, “Modulators of hedgehog (Hh) signaling pathway” (E-THERAPEUTICS PLC, priority 2016, dated 2021).
# Tested on: C3H10T1/2 cells
# Assay: C3H assay: differentiation of C3H10T1/2 cells by mSHH, measurement of alkaline phosphatase
# Type: cell-based, mouse
# Settings: Mus musculus, C3H 10T1/2; C3H10T1/2 cells stimulated with mSHH for 72 hours; alkaline phosphatase activity; read-out: IC50 Ranges
row,SMILES,IC50 [nM]
1,"CN(C)CC1(CN2CC(S(=O)(=O)N3CCC(c4c[nH]c5ncccc45)CC3)C2)CCCC1 [Compound 247, N,N-dimethyl-1-[1-[[3-[4-(1H-pyrrolo[2,3-b]pyridin-3-yl)piperidin-1-yl]sulfonylaze-tidin-1-yl]methyl]cyclopentyl] methanamine]",1000 to 10000
2,"CC(C)[C@H](CO)NC(=O)N1CC(S(=O)(=O)N2CCC(c3c[nH]c4ncccc34)CC2)C1 [Compound 251, N-[(2R)-1-hydroxy-3-methylbutan-2-yl]-3-[4-(1H-pyrrolo[2,3-b]pyridin-3-yl)piperidin-1-yl]sulfonylaze-tidine-1-carboxamide]",10 to 100
3,"COc1ccnc(N2CC(S(=O)(=O)N3CCC(c4c[nH]c5ncccc45)CC3)C2)c1C#N [Compound 252, 4-methoxy-2-[3-[4-(1H-pyrrolo [2,3-b]pyridin-3-yl)piperidin-1-yl]sulfonylaze-tidin-1-yl]pyridine-3-carbonitrile]",100 to 1000
4,"O=S(=O)(C1CN(c2ncccc2F)C1)N1CCC(c2c[nH]c3ncccc23)CC1 [Compound 253, 3-[1-[1-(3-fluoropyridin-2-yl)azetidin-3-yl]sulfonylpiper-idin-4-yl]-1H-pyrrolo[2,3-b]pyridine]",10 to 100
5,"Cc1cccnc1N1CC(S(=O)(=O)N2CCC(c3c[nH]c4ncccc34)CC2)C1 [Compound 254, 3-[1-[1-(3-methylpyridin-2-yl)azetidin-3-yl]sulfonylpiper-idin-4-yl]-1H-pyrrolo[2,3-b]pyridine]",10 to 100
6,"CC(C)(O)c1cccnc1N1CC(S(=O)(=O)N2CCC(c3c[nH]c4ncccc34)CC2)C1 [Compound 255, 2-[2-[3-[4-(1H-pyrrolo[2,3-b]pyridin-3-yl)piperidin-1-yl]sulfonylaze-tidin-1-yl]pyridin-3-yl]propan-2-ol]",10 to 100
7,"Cc1ccnc(N2CC(S(=O)(=O)N3CCC(c4c[nH]c5ncccc45)CC3)C2)c1 [Compound 257, 3-[1-[1-(4-methylpyridin-2-yl)azetidin-3-yl]sulfonylpiper-idin-4-yl]-1H-pyrrolo[2,3-b]pyridine]",10 to 100
8,"N#Cc1ccnc(N2CC(S(=O)(=O)N3CCC(c4ccncc4)CC3)C2)c1 [Compound 258, 2-[3-(4-pyridin-4-ylpiperidin-1-yl)sulfonylaze-tidin-1-yl]pyridine-4-carbonitrile]",1000 to 10000
9,"O=S(=O)(C1CN(c2ncccc2CO)C1)N1CCC(c2ccncc2)CC1 [Compound 259, [2-[3-(4-pyridin-4-ylpiperidin-1-yl)sulfonylaze-tidin-1-yl]pyridin-3-yl]methanol]",1000 to 10000
10,"CCOC(=O)c1coc(N2CC(S(=O)(=O)N3CCC(c4ccncc4)CC3)C2)n1 [Compound 260, ethyl 2-[3-(4-pyridin-4-ylpiperidin-1-yl)sulfonylaze-tidin-1-yl]-1,3-oxazole-4-carboxylate]",1000 to 10000
11,"NC(=O)c1coc(N2CC(S(=O)(=O)N3CCC(c4ccncc4)CC3)C2)n1 [Compound 261, 2-[3-[[4-(4-pyridyl)-1-piperidyl]sulfonyl]azetidin-1-yl]oxazole-4-carboxamide]",1000 to 10000
12,"Cc1noc(C)c1NC(=O)N1CC(S(=O)(=O)N2CCC(c3ccncc3)CC2)C1 [Compound 262, N-(3,5-dimethyl-1,2-oxazol-4-yl)-3-(4-pyridin-4-ylpiperidin-1-yl)sulfonylaze-tidine-1-carboxamide]",100 to 1000
13,"CC[C@@H](C)OC(=O)N1CC(S(=O)(=O)N2CCC(c3ccncc3)CC2)C1 [Compound 263, [(2R)-butan-2-yl]3-(4-pyridin-4-ylpiperidin-1-yl)sulfonylaze-tidine-1-carboxylate]",100 to 1000
14,"O=C(OC1CCCCC1)N1CC(S(=O)(=O)N2CCC(c3ccncc3)CC2)C1 [Compound 264, cyclohexyl 3-(4-pyridin-4-ylpiperidin-1-yl)sulfonylaze-tidine-1-carboxylate]",100 to 1000
15,"O=C(NC1(C(F)(F)F)CC1)N1CC(S(=O)(=O)N2CCC(c3ccncc3)CC2)C1 [Compound 265, 3-(4-pyridin-4-ylpiperidin-1-yl)sulfonyl-N-[1-(trifluoromethyl)-cyclopropyl] azetidine-1-carboxamide]",100 to 1000
16,"O=C(OCC1CCCCC1)N1CC(S(=O)(=O)N2CCC(c3ccncc3)CC2)C1 [Compound 266, cyclohexylmethyl 3-(4-pyridin-4-ylpiperidin-1-yl)sulfonylaze-tidine-1-carboxylate]",100 to 1000
17,"Cc1ccc(-n2cc(C3CCN(S(=O)(=O)C4CNC4)CC3)c3cccnc32)nc1 [Compound 267, 3-[1-(azetidin-3-ylsulfonyl)piper-idin-4-yl]-1-(5-methylpyridin-2-yl)pyrrolo [2,3-b]pyridine]",1000 to 10000

# Next, values leading:
row,IC50 [nM],SMILES
1,1000 to 10000,"O=S(=O)(C1CN(c2ccccn2)C1)N1CCC(c2ccncc2)CC1 [Compound 268, 2-[3-(4-pyridin-4-ylpiperidin-1-yl)sulfonylaze-tidin-1-yl]pyridine]"
2,100 to 1000,"O=S(=O)(C1CN(c2cccnc2)C1)N1CCC(c2c[nH]c3ncccc23)CC1 [Compound 270, 3-[1-(1-pyridin-3-ylazetidin-3-yl)-sulfonylpiper-idin-4-yl]-1H-pyrrolo[2,3-b]pyridine]"
3,10 to 100,"CN(C(=O)N1CCC(S(=O)(=O)N2CCC(c3c[nH]c4ncccc34)CC2)C1)C(C)(C)C (stereo not shown) [Compound 272, N-tert-butyl-N-methyl-3-[4-(1H-pyrrolo[2,3-b]pyridin-3-yl)piperidin-1-yl]sulfonylpyrr olidine-1-carboxamide]"
4,100 to 1000,COC(=O)[C@H]1C[C@@H](S(=O)(=O)N2CCC(c3c[nH]c4ncccc34)CC2)C1 [Compound 273]
5,100 to 1000,"COc1cccc(NC(=O)N2CC(S(=O)(=O)N3CCC(c4c[nH]c5ncccc45)CC3)C2)c1 [Compound 275, N-(3-methoxyphenyl)-3-[4-(1H-pyrrolo[2,3-b]pyridin-3-yl)piperidin-1-yl]sulfonylaze-tidine-1-carboxamide]"
6,100 to 1000,"Cc1ccc(NC(=O)N2CC(S(=O)(=O)N3CCC(c4c[nH]c5ncccc45)CC3)C2)cc1 [Compound 276, N-(4-methylphenyl)-3-[4-(1H-pyrrolo[2,3-b]pyridin-3-yl)piperidin-1-yl]sulfonylaze-tidine-1-carboxamide]"
7,10 to 100,"Cc1ccc(F)cc1NC(=O)N1CC(S(=O)(=O)N2CCC(c3c[nH]c4ncccc34)CC2)C1 [Compound 277, N-(5-fluoro-2-methylphenyl)-3-[4-(1H-pyrrolo[2,3-b]pyridin-3-yl)piperidin-1-yl]sulfonylaze-tidine-1-carboxamide]"
8,10 to 100,"CN(C(=O)C1CC(S(=O)(=O)N2CCC(c3c[nH]c4ncccc34)CC2)C1)C(C)(C)C (stereo not shown) [Compound 278, N-tert-butyl-N-methyl-3-[4-(1H-pyrrolo [2,3-b]pyridin-3-yl)piperidin-1-yl]sulfonylcycl obutane-1-carboxamide]"
9,1000 to 10000,"COc1cccc(N(C)C(=O)N2CC(S(=O)(=O)N3CCC(c4c[nH]c5ncccc45)CC3)C2)c1 [Compound 279, N-(3-methoxyphenyl)-N-methyl-3-[4-(1H-pyrrolo [2,3-b]pyridin-3-yl)piperidin-1-yl]sulfonylaze-tidine-1-carboxamide]"
10,1000 to 10000,"O=C(Oc1ccc(F)cc1)N1CC(S(=O)(=O)N2CCC(c3ccncc3)CC2)C1 [Compound 280, (4-fluorophenyl) 3-(4-pyridin-4-ylpiperidin-1-yl) sulfonylaze-tidine-1-carboxylate]"
11,1000 to 10000,"COc1cccc(NC(=O)N2CC(S(=O)(=O)N3CCC(c4ccncc4)CC3)C2)c1 [Compound 281, N-(3-methoxyphenyl)-3-(4-pyridin-4-ylpiperidin-1-yl)sulfonylaze-tidine-1-carboxamide]"
12,1000 to 10000,"Cc1ccc(NC(=O)N2CC(S(=O)(=O)N3CCC(c4ccncc4)CC3)C2)cc1 [Compound 282, N-(4-methylphenyl)-3-(4-pyridin-4-ylpiperidin-1-yl)sulfonylaze-tidine-1-carboxamide]"
13,100 to 1000,"CC(C)(C)OC(=O)N1CC(S(=O)(=O)N2CCC(c3nc4ccccc4s3)CC2)C1 [Compound 283, tert-butyl 3-[4-(1,3-benzothiazol-2-yl)piperidin-1-yl]sulfonylaze-tidine-1-carboxylate]"
14,1000 to 10000,"Cc1ccc(F)cc1NC(=O)N1CC(S(=O)(=O)N2CCC(c3ccncc3)CC2)C1 [Compound 286, N-(5-fluoro-2-methylphenyl)-3-(4-pyridin-4-ylpiperidin-1-yl)sulfonylaze-tidine-1-carboxamide]"
15,1000 to 10000,"O=S(=O)(C1CCC1)N1CCC(c2c[nH]c3ncccc23)CC1 [Compound 287, 3-(1-cyclobutylsulfonylpiperidin-4-yl)-1H-pyrrolo[2,3-b]pyridine]"
16,10 to 100,"CN(C(=O)[C@H]1C[C@@H](S(=O)(=O)N2CCC(c3c[nH]c4ncccc34)CC2)C1)C(C)(C)C [Compound 289, cis-N-tert-butyl-N-methyl-3-[[4-(1H-pyrrolo[2,3-b]pyridin-3-yl)-1-piperidyl]sulfonyl]cyclobutanecarboxamide]"
17,100 to 1000,"CN(C(=O)[C@H]1C[C@H](S(=O)(=O)N2CCC(c3c[nH]c4ncccc34)CC2)C1)C(C)(C)C [Compound 290, trans-N-tert-butyl-N-methyl-3-[[4-(1H-pyrrolo[2,3-b]pyridin-3-yl)-1-piperidyl]sulfonyl]cyclobutanecarboxamide]"
18,1000 to 10000,"O=C(NCCS(=O)(=O)N1CCC(c2ccncc2)CC1)OC1CCCCC1 [Compound 291, cyclohexyl N-[2-(4-pyridin-4-ylpiperidin-1-yl)sulfonylethyl] carbamate]"
19,10 to 100,"O=C(NC1(C(F)(F)F)CC1)N1CC(S(=O)(=O)N2CCC(c3nc4ccccc4s3)CC2)C1 [Compound 293, 3-[4-(1,3-benzothiazol-2-yl)piperidin-1-yl]sulfonyl-N-[1-(trifluoromethyl)cyclopropyl] azetidine-1-carboxamide]"
20,1000 to 10000,"Cc1noc(C)c1NC(=O)[C@H]1C[C@@H](S(=O)(=O)N2CCC(c3ccncc3)CC2)C1 [Compound 295, cis-N-(3,5-dimethyl-1,2-oxazol-4-yl)-3-(4-pyridin-4-ylpiperidin-1-yl) sulfonylcyclobutane-1-carboxamide]"
